What was measured:
Italian ryegrass = assay: Test A preemergence; format: in vivo, Lolium multiflorum
Procedure, shortened: (§1)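 Visual 0–100 rating (100 = complete control) taken about 10 d post-treatment relative to untreated checks. Preemergence: directed soil spray on sown loam/sand pots. Postemergence: seedlings 2–10 cm, 1–2 leaf. Non-phytotoxic solvent formulation with surfactant.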

lambsquarters = assay: Test C preemergence; format: in vivo, Chenopodium album; conditions: for Lambsquarters plant response rating: preemergence
Procedure, shortened: (§2)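 Preemergence: seeds sown in a loam soil–sand blend and sprayed with test chemical in a non-phytotoxic solvent mixture containing surfactant. Postemergence: plants at 2 to 18 cm (1- to 4-leaf stage) in peat-based medium, treated with the same formulation. Greenhouse 13 to 15 days, then visual rating 0 (no effect) to 100 (complete control).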

yellow nutsedge = assay: Test C preemergence; format: in vivo, Cyperus esculentus; conditions: for Nutsedge, Yellow plant response rating: preemergence
Procedure, shortened: as §2

galium [1] = assay: Test C preemergence; format: in vivo, Galium aparine; conditions: for Galium plant response rating: preemergence
Procedure, shortened: as §2

oilseed rape = assay: Test C preemergence; format: in vivo, Brassica napus; conditions: for Oilseed Rape plant response rating: preemergence
Procedure, shortened: as §2

kochia [2] = assay: Test A postemergence; format: in vivo, Kochia scoparia
Procedure, shortened: as §1

giant foxtail = assay: Test C preemergence; format: in vivo, Setaria faberii; conditions: for Foxtail, Giant plant response rating: preemergence
Procedure, shortened: as §2

wheat, winter = assay: Test C preemergence; format: in vivo, Triticum aestivum; conditions: for Wheat plant response rating: preemergence
Procedure, shortened: as §2

galium [3] = assay: Test A postemergence; format: in vivo, Galium aparine
Procedure, shortened: as §1

waterhemp = assay: Test C preemergence; format: in vivo, Amaranthus rudis; conditions: for Waterhemp plant response rating: preemergence
Procedure, shortened: as §2

soybean = assay: Test C preemergence; format: in vivo, Glycine max; conditions: for Soybean plant response rating: preemergence
Procedure, shortened: as §2

kochia [4] = assay: Test A preemergence; format: in vivo, Kochia scoparia
Procedure, shortened: as §1

johnsongrass = assay: Test C preemergence; format: in vivo, Sorghum halepense; conditions: for Johnsongrass plant response rating: preemergence
Procedure, shortened: as §2

blackgrass = assay: Test C preemergence; format: in vivo, Alopecurus myosuroides; conditions: for Blackgrass plant response rating: preemergence
Procedure, shortened: as §2

ragweed = assay: Test C preemergence; format: in vivo, Ambrosia elatior; conditions: for Ragweed plant response rating: preemergence
Procedure, shortened: as §2

barnyardgrass = assay: Test C preemergence; format: in vivo, Echinochloa crus-galli; conditions: for Barnyardgrass plant response rating: preemergence
Procedure, shortened: as §2

velvetleaf = assay: Test C preemergence; format: in vivo, Abutilon theophrasti; conditions: for Velvetleaf plant response rating: preemergence
Procedure, shortened: as §2

pigweed = assay: Test C preemergence; format: in vivo, Amaranthus retroflexus; conditions: for Pigweed plant response rating: preemergence
Procedure, shortened: as §2

[5] = 500 g ai/ha, 0 to 100 scale where 0 is no effect and 100 is complete control
[6] = 16 g ai/ha, scale 0 to 100 (0 no effect, 100 complete control)
[7] = 125 g ai/ha, scale 0 (no effect) to 100 (complete control)
[8] = Preemergence, 62 g ai/ha, scale 0 to 100, 0 no effect, 100 complete control
[9] = 125 g ai/ha, 0 to 100 scale, 0 no effect, 100 complete control

N#Cc1cnn(-c2c(Oc3ncc(F)cn3)cccc2C(F)F)c1 [Compound 240]
Ryegrass, Italian plant response rating (0 to 100 scale) (Italian ryegrass; 125 g ai/ha): 20
Ryegrass, Italian plant response rating (Italian ryegrass; [5]): 70
Lambsquarters plant response rating (lambsquarters; [6]): 70
Lambsquarters plant response rating (lambsquarters; [7]): 100
Plant response rating, Lambsquarters (lambsquarters; [8]): 100
Nutsedge, Yellow plant response rating (yellow nutsedge; [6]): 0
Nutsedge, Yellow plant response rating (yellow nutsedge; [7]): 40
Plant response rating, Nutsedge, Yellow (yellow nutsedge; [8]): 15
Galium plant response rating (galium [1]; [6]): 5
Galium plant response rating (galium [1]; [7]): 100
Plant response rating, Galium (galium [1]; [8]): 100
Oilseed Rape plant response rating (oilseed rape; [6]): 70
Oilseed Rape plant response rating (oilseed rape; [7]): 100
Plant response rating, Oilseed Rape (oilseed rape; [8]): 100
Plant response rating, Kochia (kochia [2]; [9]): 100
Plant response rating, Kochia (kochia [2]; [5]): 60
Foxtail, Giant plant response rating (giant foxtail; [6]): 10
Foxtail, Giant plant response rating (giant foxtail; [7]): 100
Plant response rating, Foxtail, Giant (giant foxtail; [8]): 100
Wheat plant response rating (wheat, winter; [6]): 0
Wheat plant response rating (wheat, winter; [7]): 5
Plant response rating, Wheat (wheat, winter; [8]): 0
Plant response rating, Galium (galium [3]; [9]): 100
Plant response rating, Galium (galium [3]; [5]): 100
Waterhemp plant response rating (waterhemp; [6]): 50
Waterhemp plant response rating (waterhemp; [7]): 100
Plant response rating, Waterhemp (waterhemp; [8]): 100
Soybean plant response rating (soybean; [6]): 40
Soybean plant response rating (soybean; [7]): 98
Plant response rating, Soybean (soybean; [8]): 85
Kochia plant response rating (0 to 100 scale) (kochia [4]; 125 g ai/ha): 100
Kochia plant response rating (kochia [4]; [5]): 100
Johnsongrass plant response rating (johnsongrass; [6]): 5
Johnsongrass plant response rating (johnsongrass; [7]): 45
Plant response rating, Johnsongrass (johnsongrass; [8]): 10
Blackgrass plant response rating (blackgrass; [6]): 0
Blackgrass plant response rating (blackgrass; [7]): 95
Plant response rating, Blackgrass (blackgrass; [8]): 95
Ragweed plant response rating (ragweed; [6]): 10
Ragweed plant response rating (ragweed; [7]): 80
Plant response rating, Ragweed (ragweed; [8]): 100
Barnyardgrass plant response rating (barnyardgrass; [6]): 5
Barnyardgrass plant response rating (barnyardgrass; [7]): 100
Plant response rating, Barnyardgrass (barnyardgrass; [8]): 60
Velvetleaf plant response rating (velvetleaf; [6]): 25
Velvetleaf plant response rating (velvetleaf; [7]): 85
Plant response rating, Velvetleaf (velvetleaf; [8]): 80
Pigweed plant response rating (pigweed; [6]): 5
Pigweed plant response rating (pigweed; [7]): 65
Plant response rating, Pigweed (pigweed; [8]): 55

— patent US9695155B2, “Herbicidal substituted pyrimidinyloxy benzene compounds” (E. I. DU PONT DE NEMOURS AND COMPANY, priority 2013, dated 2017)
